Laboratory results reported in patent publication US6410041B1, “Culturing cells in presence of amphipathic weak bases and/or cations and multiple drug resistance inhibitor containing reserpine” (priority 1998, dated 2002).
In brackets after ≈: the same amount, converted by molar mass. Several values for one entry are separate records, joined by “and”; a condition that tells them apart may be missing. Identical values can stand only once. Like-named read-outs stand apart in the source and are kept apart here.

Assays:
[1] = system: Staphylococcus aureus KLE 820 (norA−); assay: microbe, parasite or virus in culture; assay type: cell-based; conditions: for effect of addition of reserpine on sensitivity to drugs: norA mutant; for Sensitivity of norA- as compared to the wild type: in the absence of reserpine; for increase in sensitivity, pH 9 combined with norA mutation: norA− at pH 9 vs wild type at neutral pH; for increase in sensitivity by norA mutation: norA− vs wild type
Description: Disruption of the norA gene. Chloramphenicol acetyltransferase (CAT) gene was isolated by digesting plasmid pLI50 (10) with Sau3A (New England Biolabs). The CAT gene was cloned into the BamHI site of plasmid pSP72 (Promega) to yield plasmid PCH22. Chromosomal DNA from S. aureus RN4220 was isolated according to the protocol of Qiagen, Inc. Part of the 1050 bp norA gene lacking a 80 bp N-terminus and a 20 bp C-terminus was PCR-amplified from chromosomal DNA using primer A:5′-[…]-[…] and primer B:5′-[…]. This fragment was cloned into the EcoRI/EcoRV site of PCH22 to yield plasmid PCH23. S. aureus were transformed by PCH23 using electroporation (11). Cells were plated on trypticase soy agar (TSA) with chloramphenicol. A transformant colony was picked after 24 hours of incubation at 37 C., regrown, plated on CAM medium and a large colony was picked for further work.
(§1) Determination of minimal inhibitory concentrations (MICs). MICs were determined by serial two-fold dilution of antimicrobials in Mueller-Hinton broth containing chloramphenicol ([…]). […] Around 10^5 cells were inoculated in 1 ml of medium for the test. MICs were read after 18 hours of incubation at 37 C. with aeration. The 50% inhibitory concentration (IC50) was determined by growing cells in microtiter plate wells and reading the optical density after overnight growth at 650 nm.

[2] = system: Staphylococcus aureus RN 4222 (WT); assay: MIC determination in wild type S. aureus; assay type: cell-based
Experimental: as §1

[3] = system: S. aureus; assay: MICs of antimicrobials with small molecule MDR inhibitor (I) and high pH; assay type: cell-based, Staphylococcus aureus; conditions: for Potentiation factor (pH 7/(pH 9 + I)): pH 7 vs pH 9 + I
Experimental: as §1

[4] = Staphylococcus aureus, RN 4222 (WT), −R (no reserpine), read-out: MIC
[5] = KLE 820 (norA−), −R (no reserpine)
[6] = RN 4222 (WT), −R (no reserpine)
[7] = Staphylococcus aureus, pH 7.2, KLE 820 (norA−), pH 7.2
[8] = Staphylococcus aureus, pH 9, KLE 820 (norA−), pH 9
[9] = Staphylococcus aureus, RN 4222 (WT), pH 7.2, read-out: MIC
[10] = Staphylococcus aureus, pH 7, read-out: MIC
[11] = Staphylococcus aureus, pH 9, read-out: MIC

How did the “effect of addition of reserpine on sensitivity to drugs” value (“effect of addition of reserpine” for short) [1] turn out when `COC(=O)[C@H]1[C@H]2C[C@@H]3c4[nH]c5cc(OC)ccc5c4CCN3C[C@H]2C[C@@H](OC(=O)c2cc(OC)c(OC)c(OC)c2)[C@@H]1OC` [Reserpine] was run?
Its value is “virtually no effect”.

What about the “effect of addition of reserpine” value ([1]; listed as Reserpin) of the same compound?
The value was “failed to further increase sensitivity”.

What about the “effect of addition of reserpine” value ([2]; wild type) of the same compound?
The value was “increased the sensitivity of the wild type to drugs”.

With `CC(=O)OCC1=C(C(=O)O)N2C(=O)[C@@H](NC(=O)Cc3cccs3)[C@H]2SC1` [Cephalothin] as the compound, how does the “Sensitivity of norA- as compared to the wild type” value [1] read?
The value was 1.

And the MIC [2, 4]?
Its MIC is 0.15 µg/mL (≈ 0.378 µM).

`CCC[C@@H]1C[C@@H](C(=O)N[C@@H]([C@H]2O[C@H](SC)[C@H](O)[C@@H](O)[C@H]2O)[C@H](C)Cl)N(C)C1` [Clindamycin] was tested. Which “Sensitivity of norA- as compared to the wild type” value [1] did it give?
The value was 1.

And the MIC [2, 4]?
The MIC was 0.047 µg/mL (≈ 0.111 µM).

How did the MIC [1, 5] turn out when Gentamycin was run?
Its MIC is 0.62 µg/mL.

What about the “Sensitivity of norA- as compared to the wild type” value [1] of the same compound?
The value was 1.

What about the MIC [2, 6] of the same compound?
The MIC was 0.62 µg/mL.

With `COc1ccc2cc3[n+](cc2c1OC)CCc1cc2c(cc1-3)OCO2` [Berberine] as the compound, how does the MIC [1, 7] read?
The MIC was 7.5 µg/mL.

And the MIC [1, 8]?
Its MIC is 0.23 µg/mL.

What about the “substrate of NorA” value ([1]; based on comparison of MIC from wild type and norA−) of the same compound?
The value was “substrates of NorA”.

What about the “increase in sensitivity, pH 9 combined with norA mutation” value [1] of the same compound?
The value was 260 fold.

What about the “Sensitivity norA− at pH 9 vs. WT at pH 7.2” value ([1]; norA− at pH 9 vs. WT at pH 7.2) of the same compound?
Its value is 260.

And the “increase in sensitivity by norA mutation” value [1]?
Its value is 32 fold.

What about the MIC [2, 9] of the same compound?
The MIC was 60 µg/mL.

And the MIC ([2]; Staphylococcus aureus, RN 4222 (WT), pH 9, read-out: MIC)?
Its MIC is 3.75 µg/mL.

And the MIC [3, 10]?
Its MIC is 60 µg/mL.

What about the MIC [3, 11] of the same compound?
The MIC was 7.5 µg/mL.

And the MIC ([3]; Staphylococcus aureus, MDR inhibitor and high pH, read-out: MIC)?
Its MIC is 0.012 µg/mL.

What about the “substrate of MDR pumps” value ([3]; cationic plant antimicrobial alkaloids) of the same compound?
The value was “good substrates of MDR pumps”.

What about the MIC ([3]; pH 7 + I (10 μg/mL)) of the same compound?
The MIC was 0.4 µg/mL.

What about the Ratio ([3]; pH 7 vs pH 7 + I) of the same compound?
The Ratio was 150.

And the “Potentiation factor (pH 7/(pH 9 + I))” value [3]?
The value was 4,800.

What about the MIC ([3]; pH 9 + I) of the same compound?
Its MIC is 0.0125 µg/mL.

What about the Ratio ([3]; pH 9 vs pH 9 + I) of the same compound?
Its Ratio is 600.

What about the “increase in potency by MDR inhibitor” value ([3]; proprietary MDR inhibitor (I), Table 3, pH 7) of the same compound?
The value was 150 fold.

Which results are given for `CN(C)[C@@H]1C(O)=C(C(N)=O)C(=O)[C@@]2(O)C(O)=C3C(=O)c4c(O)cccc4[C@@](C)(O)[C@H]3C[C@@H]12` [Tetracycline]?
Sensitivity of norA- as compared to the wild type [1]: 1; MIC [2, 4]: 0.097 µg/mL (≈ 0.218 µM)

How did the MIC [1, 7] turn out when `N=C(N)c1ccc(OCCCCCOc2ccc(C(=N)N)cc2)cc1` [Pentamidine] was run?
Its MIC is 0.312 µg/mL (≈ 0.918 µM).

And the MIC [1, 8]?
The MIC was 0.0097 µg/mL (≈ 0.0285 µM).

What about the MIC ([1]; Staphylococcus aureus, pH 9, pH 9 and norA mutation) of the same compound?
The MIC was 0.01 µg/mL (≈ 0.0294 µM).

And the “increase in sensitivity, pH 9 combined with norA mutation” value [1]?
The value was 1,000 fold.

What about the “increase in sensitivity by norA mutation” value [1] of the same compound?
Its value is 30 fold and 33 fold.

What about the MIC ([2]; Staphylococcus aureus, pH 9) of the same compound?
Its MIC is 0.312 µg/mL (≈ 0.918 µM).

And the MIC [2, 9]?
Its MIC is 10 µg/mL (≈ 29.4 µM).

And the “effect of pH 9 on sensitivity / effectiveness” value ([2]; change of pH from 7 to 9)?
The value was “significantly increased the effectiveness”.

And the MIC [3, 10]?
Its MIC is 10 µg/mL (≈ 29.4 µM).

And the MIC [3, 11]?
Its MIC is 0.3 µg/mL (≈ 0.881 µM).

What about the MIC ([3]; pH 7 + I (10 μg/mL)) of the same compound?
Its MIC is 0.33 µg/mL.

What about the “Potentiation factor (pH 7/(pH 9 + I))” value [3] of the same compound?
Its value is 500.

And the MIC ([3]; pH 9 + I)?
Its MIC is 0.02 µg/mL.

`CN[C@H](CC(C)C)C(=O)N[C@H]1C(=O)N[C@@H](CC(N)=O)C(=O)N[C@H]2C(=O)N[C@H]3C(=O)N[C@H](C(=O)N[C@H](C(=O)O)c4cc(O)cc(O)c4-c4cc3ccc4O)[C@H](O)c3ccc(c(Cl)c3)Oc3cc2cc(c3O[C@@H]2O[C@H](CO)[C@@H](O)[C@H](O)[C@H]2O[C@H]2C[C@](C)(N)[C@H](O)[C@H](C)O2)Oc2ccc(cc2Cl)[C@H]1O` [Vancomycin] was tested. Which MIC ([1]; Staphylococcus aureus) did it give?
Its MIC is 1.5 µg/mL (≈ 1.04 µM).

What about the “Sensitivity of norA- as compared to the wild type” value [1] of the same compound?
The value was 1.

What about the MIC ([2]; Staphylococcus aureus) of the same compound?
The MIC was 1.5 µg/mL (≈ 1.04 µM).

What does the source list for `NC[C@H]1O[C@H](O[C@H]2[C@H](O)[C@@H](O[C@H]3O[C@H](CO)[C@@H](O)[C@H](N)[C@H]3O)[C@H](N)C[C@@H]2N)[C@H](O)[C@@H](O)[C@@H]1O` [Kanamycin]?
Sensitivity of norA- as compared to the wild type [1]: 1; MIC [2, 4]: 0.33 µg/mL (≈ 0.681 µM)

For Acriflavine, which MIC ([1]; KLE 820 (norA−), +R (20 μg/mL reserpine)) is on record?
The MIC was 2.5 µg/mL.

What about the MIC [1, 5] of the same compound?
Its MIC is 2.5 µg/mL.

And the “Sensitivity of norA- as compared to the wild type” value [1]?
Its value is 8.

And the MIC ([2]; RN 4222 (WT), +R (20 μg/mL reserpine))?
The MIC was 10 µg/mL.

What about the MIC [2, 6] of the same compound?
Its MIC is 20 µg/mL.
